Measurements taken from patent publication US10934274B2, “Quinoline derivatives as TAM RTK inhibitors” (Qurient Co., Ltd., priority 2015, dated 2021).

Experiments:
Met = biological target: T1, Met (Homo sapiens, UniProt P08581); test: LanthaScreen Eu kinase binding assay, Met; conditions: Tracer 236, read-out: cMet kinase binding activity (Kd)
T1 construct: purchased Life Technologies
Protocol: (§1) LanthaScreen® Eu Kinase Binding assays were conducted at Life Technologies using the manufacturer's specifications for each kinase indicated.
(§2) Briefly, the principle behind this assay is based upon the binding and displacement of an Alexa Fluor 647-labeled tracer to the kinase of interest. Binding of the tracer to the kinase is detected using an EU-labeled anti-tag antibody. Simultaneous binding of both the tracer and antibody to the kinase gives rise to a FRET-signal. Binding of an inhibitor to the kinase competes for binding with the tracer, resulting in a loss of FRET-signal.
(§3) Binding Assay Protocol for AXL, Mer, Tyro3 and Met
(§4) A given compound was diluted in DMSO to make a stock compound solution. The stock compound solution was serially diluted over eight steps in DMSO. Each diluted compound solution in DMSO was diluted in kinase buffer. Afterwards four kinds of working solution were prepared. First, Tracer-Working solution consists of Tracer 236 and Kinase Buffer. Second, Axl, Mer, Tyro3 or Met/anti-GST-AB-Working solution contained one of the kinases Axl, Mer, Tyro3, Met or anti-GST-AB (=anti glutathione-S-transferase antibody) in Kinase Buffer. Third, anti-GST-AB-Working solution was made with anti-GST-AB and Kinase Buffer. Last, in the DMSO-Working solution DMSO was added to Kinase Buffer to a final concentration to 3%. Each of the four kinds of working solutions were separately added to the assay plate and then incubated for 1 h at room temperature. After incubation, the assay plate was measured with respect to the FRET-Signal with the EnVision (Perkin Elmer) using the program LanthaHTRF-Assay. Data evaluation was done in the Quattro Workflow software.
(§5) Table 1 summarises the results obtained for AXL, Mer and Tyro3-kinases binding assays; table 2 summarises the results obtained for the Met kinase binding assay.

TYRO3 = biological target: T2, TYRO3 (Homo sapiens, UniProt Q06418); test: LanthaScreen Eu kinase binding assay, TYRO3; conditions: Tracer 236
T2 construct: purchased Life Technologies
T2 sequence (Q06418 41-890): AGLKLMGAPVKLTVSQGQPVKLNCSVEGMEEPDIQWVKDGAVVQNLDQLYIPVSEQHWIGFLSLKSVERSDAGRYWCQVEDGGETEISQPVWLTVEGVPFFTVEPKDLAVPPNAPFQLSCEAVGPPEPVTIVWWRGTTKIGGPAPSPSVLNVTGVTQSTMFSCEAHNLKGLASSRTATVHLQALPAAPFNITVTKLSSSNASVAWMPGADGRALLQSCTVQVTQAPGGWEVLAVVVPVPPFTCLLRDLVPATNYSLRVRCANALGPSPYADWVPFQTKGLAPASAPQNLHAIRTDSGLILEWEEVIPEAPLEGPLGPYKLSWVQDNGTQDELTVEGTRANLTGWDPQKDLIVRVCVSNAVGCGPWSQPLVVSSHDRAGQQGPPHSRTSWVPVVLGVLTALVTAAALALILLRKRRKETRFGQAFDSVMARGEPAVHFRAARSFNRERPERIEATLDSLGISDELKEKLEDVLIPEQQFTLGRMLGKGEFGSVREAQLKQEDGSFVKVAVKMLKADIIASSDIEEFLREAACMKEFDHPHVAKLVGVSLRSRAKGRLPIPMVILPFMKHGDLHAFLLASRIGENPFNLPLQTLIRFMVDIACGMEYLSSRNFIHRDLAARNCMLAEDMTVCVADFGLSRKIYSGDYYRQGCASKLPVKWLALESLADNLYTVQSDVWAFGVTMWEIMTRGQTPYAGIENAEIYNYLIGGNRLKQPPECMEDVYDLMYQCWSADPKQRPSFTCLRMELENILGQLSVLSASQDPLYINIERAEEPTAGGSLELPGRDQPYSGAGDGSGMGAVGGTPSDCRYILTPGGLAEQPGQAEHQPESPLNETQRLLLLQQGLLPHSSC
Protocol: as §1, §2, §3, §4, §5

Axl = biological target: T3, Axl (Homo sapiens, UniProt P30530); test: LanthaScreen Eu kinase binding assay, Axl; conditions: Tracer 236
T3 construct: purchased Life Technologies
T3 sequence (P30530 26-894): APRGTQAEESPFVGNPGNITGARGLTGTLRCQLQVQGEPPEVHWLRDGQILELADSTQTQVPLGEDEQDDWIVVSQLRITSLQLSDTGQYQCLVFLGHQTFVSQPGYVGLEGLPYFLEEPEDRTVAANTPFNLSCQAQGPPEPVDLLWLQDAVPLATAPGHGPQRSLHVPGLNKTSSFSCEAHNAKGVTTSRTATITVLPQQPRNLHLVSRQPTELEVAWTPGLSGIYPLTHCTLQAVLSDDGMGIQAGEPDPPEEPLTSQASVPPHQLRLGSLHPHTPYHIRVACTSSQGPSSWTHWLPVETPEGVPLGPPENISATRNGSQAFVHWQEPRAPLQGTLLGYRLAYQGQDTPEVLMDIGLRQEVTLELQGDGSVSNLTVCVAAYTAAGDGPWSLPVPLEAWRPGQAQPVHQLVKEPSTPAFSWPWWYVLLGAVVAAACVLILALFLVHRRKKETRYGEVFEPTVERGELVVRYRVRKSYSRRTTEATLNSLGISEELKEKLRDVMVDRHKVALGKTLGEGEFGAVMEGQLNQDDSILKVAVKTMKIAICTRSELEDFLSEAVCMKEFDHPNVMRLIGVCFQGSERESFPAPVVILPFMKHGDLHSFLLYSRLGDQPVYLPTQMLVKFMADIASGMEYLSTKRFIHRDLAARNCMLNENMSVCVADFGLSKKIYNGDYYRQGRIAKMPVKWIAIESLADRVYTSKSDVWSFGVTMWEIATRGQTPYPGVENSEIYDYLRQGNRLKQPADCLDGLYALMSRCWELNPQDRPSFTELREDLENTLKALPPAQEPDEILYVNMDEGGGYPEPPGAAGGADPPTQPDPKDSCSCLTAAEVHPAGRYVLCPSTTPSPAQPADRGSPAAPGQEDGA
Protocol: as §1, §2, §3, §4, §5

Mer = biological target: T4, Mer (Homo sapiens, UniProt Q12866); test: LanthaScreen Eu kinase binding assay, Mer; conditions: Tracer 236
T4 construct: purchased Life Technologies
T4 sequence (Q12866 21-999): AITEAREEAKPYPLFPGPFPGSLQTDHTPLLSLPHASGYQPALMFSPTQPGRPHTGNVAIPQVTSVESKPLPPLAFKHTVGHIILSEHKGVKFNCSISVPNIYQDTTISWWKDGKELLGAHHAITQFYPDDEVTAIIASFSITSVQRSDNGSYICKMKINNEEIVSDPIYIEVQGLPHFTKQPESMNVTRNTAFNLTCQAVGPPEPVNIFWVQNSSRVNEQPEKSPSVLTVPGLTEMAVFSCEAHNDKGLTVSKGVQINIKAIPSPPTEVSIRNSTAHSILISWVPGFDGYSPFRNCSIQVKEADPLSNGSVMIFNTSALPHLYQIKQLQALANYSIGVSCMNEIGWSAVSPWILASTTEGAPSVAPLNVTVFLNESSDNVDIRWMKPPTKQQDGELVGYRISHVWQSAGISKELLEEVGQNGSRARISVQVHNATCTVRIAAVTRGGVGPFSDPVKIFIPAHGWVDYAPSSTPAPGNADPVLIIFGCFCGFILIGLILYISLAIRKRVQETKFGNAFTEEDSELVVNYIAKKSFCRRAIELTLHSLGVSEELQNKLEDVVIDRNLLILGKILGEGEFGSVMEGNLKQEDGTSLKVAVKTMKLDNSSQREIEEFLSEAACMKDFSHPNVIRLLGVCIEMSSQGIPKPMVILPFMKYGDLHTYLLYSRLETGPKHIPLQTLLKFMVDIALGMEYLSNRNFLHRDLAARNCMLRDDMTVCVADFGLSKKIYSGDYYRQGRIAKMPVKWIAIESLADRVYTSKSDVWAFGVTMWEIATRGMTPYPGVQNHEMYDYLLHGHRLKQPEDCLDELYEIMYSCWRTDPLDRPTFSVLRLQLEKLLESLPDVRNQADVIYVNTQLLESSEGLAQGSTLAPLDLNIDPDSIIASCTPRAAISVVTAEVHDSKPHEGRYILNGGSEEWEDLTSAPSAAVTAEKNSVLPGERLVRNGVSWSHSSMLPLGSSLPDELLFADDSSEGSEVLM
Protocol: as §1, §2, §3, §4, §5

T1 sequence (P08581 25-1390): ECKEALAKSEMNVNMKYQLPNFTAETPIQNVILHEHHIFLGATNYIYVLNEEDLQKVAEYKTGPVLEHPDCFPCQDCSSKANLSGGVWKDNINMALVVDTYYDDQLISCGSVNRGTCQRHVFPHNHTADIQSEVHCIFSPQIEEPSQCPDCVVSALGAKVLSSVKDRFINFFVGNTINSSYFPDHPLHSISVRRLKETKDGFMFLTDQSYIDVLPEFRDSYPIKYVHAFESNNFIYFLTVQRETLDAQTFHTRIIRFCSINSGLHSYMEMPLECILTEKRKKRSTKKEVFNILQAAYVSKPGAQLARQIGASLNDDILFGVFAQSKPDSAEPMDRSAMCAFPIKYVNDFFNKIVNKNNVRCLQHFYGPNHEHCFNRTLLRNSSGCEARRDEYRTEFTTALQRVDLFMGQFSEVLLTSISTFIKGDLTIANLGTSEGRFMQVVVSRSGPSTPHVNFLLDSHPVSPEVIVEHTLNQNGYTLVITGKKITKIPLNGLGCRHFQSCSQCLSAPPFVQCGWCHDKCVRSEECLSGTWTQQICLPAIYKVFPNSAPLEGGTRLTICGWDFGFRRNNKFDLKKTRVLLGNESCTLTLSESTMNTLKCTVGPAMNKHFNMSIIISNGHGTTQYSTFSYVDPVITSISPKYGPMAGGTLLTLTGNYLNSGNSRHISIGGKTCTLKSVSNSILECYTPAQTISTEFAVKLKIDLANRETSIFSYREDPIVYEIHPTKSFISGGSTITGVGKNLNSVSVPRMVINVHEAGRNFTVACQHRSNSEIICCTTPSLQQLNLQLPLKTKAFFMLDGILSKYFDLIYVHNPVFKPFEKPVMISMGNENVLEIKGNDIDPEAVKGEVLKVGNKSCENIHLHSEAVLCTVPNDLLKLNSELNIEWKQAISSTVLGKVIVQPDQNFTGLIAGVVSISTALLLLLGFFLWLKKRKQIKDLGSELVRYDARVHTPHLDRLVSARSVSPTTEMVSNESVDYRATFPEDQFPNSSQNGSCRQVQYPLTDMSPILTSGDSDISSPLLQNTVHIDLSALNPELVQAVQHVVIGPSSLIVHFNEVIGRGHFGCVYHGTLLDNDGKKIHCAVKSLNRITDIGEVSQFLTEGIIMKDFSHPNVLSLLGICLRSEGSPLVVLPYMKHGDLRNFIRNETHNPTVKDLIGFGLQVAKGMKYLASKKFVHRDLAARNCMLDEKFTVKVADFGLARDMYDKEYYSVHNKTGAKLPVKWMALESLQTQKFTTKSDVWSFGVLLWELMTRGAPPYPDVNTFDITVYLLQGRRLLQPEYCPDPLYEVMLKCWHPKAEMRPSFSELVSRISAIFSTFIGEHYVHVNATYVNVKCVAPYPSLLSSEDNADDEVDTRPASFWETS

Compound | Kd (Met) [nM] | Kd (TYRO3) [nM] | Kd (Axl) [nM] | Kd (Mer) [nM]
CCOc1cn(-c2cnccc2C#N)nc1C(=O)Nc1ccc(Oc2ccnc3cc(OC)c(OC)cc23)cn1 [Compound 147] | < 100 | < 100 | < 100 | < 100
CCOc1cn(-c2cnccn2)nc1C(=O)Nc1ccc(Oc2ccnc3cc(OC)c(OC)cc23)cc1F [Compound 152] | ≥ 1000 | ≥ 1000 | ≥ 1000 | < 100
CCOc1cn(CCC(=O)O)nc1C(=O)Nc1ccc(Oc2ccnc3cc(OC)c(OC)cc23)cn1 [Compound 63] | 100 to 1000 | 100 to 1000 | 100 to 1000 | 100 to 1000
CCOc1cnn(C2CCN(C)C2)c1C(=O)Nc1ccc(Oc2ccnc3cc(OC)c(OC)cc23)cn1 (stereo not shown) [Compound 75] | 100 to 1000 | ≥ 1000 | 100 to 1000 | 100 to 1000
CCOc1cnn(Cc2cnccc2C)c1C(=O)Nc1ccc(Oc2ccnc3cc(OC)c(OC)cc23)cc1F [Compound 228] | 100 to 1000 | ≥ 1000 | ≥ 1000 | 100 to 1000
CCOc1cn(-c2cnc(N)cc2C)nc1C(=O)Nc1ccc(Oc2ccnc3cc(OC)c(OC)cc23)cn1 [Compound 137] | < 100 | 100 to 1000 | < 100 | < 100
CCOc1cn(CCO)nc1C(=O)Nc1ccc(Oc2ccnc3cc(OC)c(OC)cc23)cn1 [Compound 70] | 100 to 1000 | 100 to 1000 | 100 to 1000 | < 100
CCOc1cnn(-c2ccc(C#N)nc2)c1C(=O)Nc1ccc(Oc2ccnc3cc(OC)c(OC)cc23)cn1 [Compound 53] | ≥ 1000 | ≥ 1000 | ≥ 1000 | ≥ 1000
CCOc1cn(-c2cnc(N)s2)nc1C(=O)Nc1ccc(Oc2ccnc3cc(OC)c(OC)cc23)cn1 [Compound 139] | < 100 | 100 to 1000 | < 100 | < 100
CCOc1cn(-c2cnc(N)nc2C)nc1C(=O)Nc1ccc(Oc2ccnc3cc(OC)c(OC)cc23)cn1 [Compound 150] | < 100 | < 100 | < 100 | < 100
CCOc1cn(C2CCN(C)C2)nc1C(=O)Nc1ccc(Oc2ccnc3cc(OC)c(OC)cc23)cn1 (stereo not shown) [Compound 74] | 100 to 1000 | 100 to 1000 | 100 to 1000 | < 100
CCOc1cn(-c2cnccc2CC(=O)OC)nc1C(=O)Nc1ccc(Oc2ccnc3cc(OC)c(OC)cc23)cn1 [Compound 176] | < 100 | 100 to 1000 | < 100 | < 100
CCOc1cn(-c2cncnc2N2CCCC2)nc1C(=O)Nc1ccc(Oc2ccnc3cc(OC)c(OC)cc23)cn1 [Compound 180] | ≥ 1000 | ≥ 1000 | 100 to 1000 | 100 to 1000
CCOc1cn(-c2cnccn2)nc1C(=O)NC1CC(Oc2ccnc3cc(OC)c(OC)cc23)C1 (stereo not shown) [Compound 204] | 100 to 1000 | ≥ 1000 | ≥ 1000 | 100 to 1000
CCOc1cn(-c2ccc(F)cc2C)nc1C(=O)Nc1cnc(Oc2ccnc3cc(OC)c(OC)cc23)cn1 [Compound 98] | ≥ 1000 | ≥ 1000 | ≥ 1000 | ≥ 1000
CCOc1cn(CC(N)=O)nc1C(=O)Nc1ccc(Oc2ccnc3cc(OC)c(OC)cc23)cn1 [Compound 35] | ≥ 1000 | ≥ 1000 | 100 to 1000 | < 100
COc1cc2c(Oc3ccc(NC(=O)c4c(OCC(F)(F)F)cnn4-c4cnc(N)nc4)nc3)ccnc2cc1OC(C)C [Compound 256] | ≥ 1000 | ≥ 1000 | 100 to 1000 | 100 to 1000
CCOc1cnn(-c2cncn2C)c1C(=O)Nc1ccc(Oc2ccnc3cc(OC)c(OC)cc23)cn1 [Compound 15] | 100 to 1000 | ≥ 1000 | ≥ 1000 | 100 to 1000
CCOc1cn(-c2cncc(C#N)n2)nc1C(=O)Nc1ccc(Oc2ccnc3cc(OC)c(OC)cc23)cn1 [Compound 158] | ≥ 1000 | ≥ 1000 | 100 to 1000 | ≥ 1000
CCOc1cn(-c2cnc(F)cn2)nc1C(=O)Nc1ccc(Oc2ccnc3cc(OC)c(OC)cc23)cn1 [Compound 171] | < 100 | 100 to 1000 | < 100 | < 100
CCOc1cn(-c2cnccc2OC)nc1C(=O)Nc1ccc(Oc2ccnc3cc(OC)c(OC)cc23)cn1 [Compound 173] | < 100 | < 100 | < 100 | < 100
CCOc1cn(-c2ncc(F)cc2C#N)nc1C(=O)Nc1ccc(Oc2ccnc3cc(OC)c(OC)cc23)cn1 [Compound 155] | < 100 | 100 to 1000 | < 100 | < 100
